Test results published in patent US10174067B2, “Type of cytidine derivative and application thereof” (priority 2014, dated 2019).
Marks after values point to notes of the source that are not given here.

Assays:
[1] = In short: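 Test compounds formulated in ethanol:Cremophor EL:saline (5:5:90), vehicle alone as control, in HCT-116 subcutaneous xenografts in female Balb/c nudes (6/group, start 60–150 mm^3). Weight measured three times weekly, tumour weight at end; unpaired t-test on Mean±SEM data.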
[2] = test system: HCT-116 colon cancer xenografts; test: Tumor growth inhibition of HCT-116 colon cancer xenografts in tumor-bearing nude mice (tumor volume, TGI %, RTV, T/C %); format: in vivo, Balb/c Nude mice; settings: for T/C % (relative tumor proliferation rate): dosage 400 mg/kg (G10-G16 study);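 on T/C % (relative tumor proliferation rate): control C is the vehicle-treated model control group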
In short: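 Tumors in HCT-116-inoculated nude mice were sized three times weekly by diameter, with volume V=3/4π(D/2)^3. Significance set at P<0.05.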

[3] = Day 0, G10-G16 groups, single IP 400 mg/kg
[4] = Day 0, G10-G16 groups, single IP 400 mg/kg, Mean±SEM
[5] = Day 1, G10-G16 groups, single IP 400 mg/kg, Mean±SEM
[6] = Day 2, G10-G16 groups, single IP 400 mg/kg, Mean±SEM
[7] = Day 4, G10-G16 groups, single IP 400 mg/kg, Mean±SEM
[8] = Day 7, G10-G16 groups, single IP 400 mg/kg, Mean±SEM
[9] = Day 9, G10-G16 groups, single IP 400 mg/kg, Mean±SEM
[10] = Day 11, G10-G16 groups, single IP 400 mg/kg, Mean±SEM
[11] = Day 14, G10-G16 groups, single IP 400 mg/kg, Mean±SEM
[12] = Day 16, G10-G16 groups, single IP 400 mg/kg, Mean±SEM
[13] = Day 18, G10-G16 groups, single IP 400 mg/kg, Mean±SEM
[14] = Day 21, G10-G16 groups, single IP 400 mg/kg, Mean±SEM
[15] = Day 23, G10-G16 groups, single IP 400 mg/kg, Mean±SEM
[16] = Day 25, G10-G16 groups, single IP 400 mg/kg, Mean±SEM
[17] = Day 28, G10-G16 groups, single IP 400 mg/kg, Mean±SEM
[18] = Day 30, G10-G16 groups, single IP 400 mg/kg, Mean±SEM

CCCCOC(=O)Nc1nc(=O)n([C@@H]2O[C@H](COC(=O)Cn3cnc([N+](=O)[O-])c3)C(O)C2(F)F)cc1I (stereo partly shown) [Compound G12]
Weight change rate, Day 0 [1, 3]: 0.00% | Weight of mice, Day 0 [1, 4]: 20.05 ± 0.26 g | Weight change rate, Day 1 [1, 5]: −2.59 ± 1.08% | Weight of mice, Day 1 [1, 5]: 19.53 ± 0.36 g | Weight change rate, Day 2 [1, 6]: −3.15 ± 0.93% | Weight of mice, Day 2 [1, 6]: 19.42 ± 0.29 g | Weight change rate, Day 4 [1, 7]: −1.54 ± 1.11% | Weight of mice, Day 4 [1, 7]: 19.73 ± 0.25 g | Weight change rate, Day 7 [1, 8]: −0.93 ± 1.50 % | Weight of mice, Day 7 [1, 8]: 19.85 ± 0.21 g | Weight change rate, Day 9 [1, 9]: 2.11 ± 2.28% | Weight of mice, Day 9 [1, 9]: 20.45 ± 0.32 g | Weight change rate, Day 11 [1, 10]: 3.34 ± 2.25% | Weight of mice, Day 11 [1, 10]: 20.70 ± 0.36 g | Weight change rate, Day 14 [1, 11]: 1.76 ± 2.11 % | Weight of mice, Day 14 [1, 11]: 20.38 ± 0.32 g | Weight change rate, Day 16 [1, 12]: 2.56 ± 1.91 % | Weight of mice, Day 16 [1, 12]: 20.55 ± 0.34 g | Weight change rate, Day 18 [1, 13]: 5.03 ± 2.23 % | Weight of mice, Day 18 [1, 13]: 21.05 ± 0.46 g | Weight change rate, Day 21 [1, 14]: 3.68 ± 2.13 % | Weight of mice, Day 21 [1, 14]: 20.78 ± 0.48 g | Day 22 Mortality ([1]; Day 22, single IP dose (mg/kg)): 0% | Weight change rate, Day 23 [1, 15]: 4.37 ± 1.91 % | Weight of mice, Day 23 [1, 15]: 20.92 ± 0.38 g | Weight change rate, Day 25 [1, 16]: 6.69 ± 1.87 % | Weight of mice, Day 25 [1, 16]: 21.38 ± 0.39 g | Weight change rate, Day 28 [1, 17]: 4.43 ± 0.69% | Weight of mice, Day 28 [1, 17]: 20.68 ± 0.31 g | Weight change rate, Day 30 [1, 18]: 5.67 ± 0.86% | Weight of mice, Day 30 [1, 18]: 20.93 ± 0.43 g | clinical symptoms ([1]; after single IP dose, compared with model control group): no significant differences in clinical symptoms | Day 0 (RTV) [2, 3]: 1.00 | Tumor volume, Day 0 [2, 4]: 70.49 ± 13.19* mm^3 | T/C % (relative tumor proliferation rate) ([2]; Day 0): 0.00% | Day 1 (TGI %) ([2]; Day 1, G10-G16 groups, single IP 400 mg/kg): 62.26% | Day 1 (RTV) [2, 5]: 1.12 ± 0.22 | Tumor volume, Day 1 [2, 5]: 68.13 ± 11.02** mm^3 | T/C % (relative tumor proliferation rate) ([2]; Day 1): 66.60% | Day 2 (TGI %) ([2]; Day 2, G10-G16 groups, single IP 400 mg/kg): 63.70% | Day 2 (RTV) [2, 6]: 1.28 ± 0.22 | Tumor volume, Day 2 [2, 6]: 80.54 ± 15.99** mm^3 | T/C % (relative tumor proliferation rate) ([2]; Day 2): 61.57% | Day 4 (TGI %) ([2]; Day 4, G10-G16 groups, single IP 400 mg/kg): 58.48% | Day 4 (RTV) [2, 7]: 1.80 ± 0.23 | Tumor volume, Day 4 [2, 7]: 123.31 ± 27.06** mm^3 | T/C % (relative tumor proliferation rate) ([2]; Day 4): 65.24% | Day 7 (TGI %) ([2]; Day 7, G10-G16 groups, single IP 400 mg/kg): 51.81% | Day 7 (RTV) [2, 8]: 3.07 ± 0.38 | Tumor volume, Day 7 [2, 8]: 208.41 ± 44.11** mm^3 | T/C % (relative tumor proliferation rate) ([2]; Day 7): 75.07% | Day 9 (TGI %) ([2]; Day 9, G10-G16 groups, single IP 400 mg/kg): 49.03% | Day 9 (RTV) [2, 9]: 4.37 ± 0.50 | Tumor volume, Day 9 [2, 9]: 300.88 ± 62.43* mm^3 | T/C % (relative tumor proliferation rate) ([2]; Day 9): 77.79% | Day 11 (TGI %) ([2]; Day 11, G10-G16 groups, single IP 400 mg/kg): 51.33% | Day 11 (RTV) [2, 10]: 7.11 ± 1.07 | Tumor volume, Day 11 [2, 10]: 475.09 ± 105.26** mm^3 | T/C % (relative tumor proliferation rate) ([2]; Day 11): 77.05% | Day 14 (TGI %) ([2]; Day 14, G10-G16 groups, single IP 400 mg/kg): 39.61% | Day 14 (RTV) [2, 11]: 13.07 ± 2.18 | Tumor volume, Day 14 [2, 11]: 869.70 ± 190.68* mm^3 | T/C % (relative tumor proliferation rate) ([2]; Day 14): 94.48% | Day 16 (TGI %) ([2]; Day 16, G10-G16 groups, single IP 400 mg/kg): 30.00% | Day 16 (RTV) [2, 12]: 19.45 ± 2.82 | Tumor volume, Day 16 [2, 12]: 1267.85 ± 225.13 mm^3 | T/C % (relative tumor proliferation rate) ([2]; Day 16): 112.70% | Day 18 (TGI %) ([2]; Day 18, G10-G16 groups, single IP 400 mg/kg): 19.24% | Day 18 (RTV) [2, 13]: 26.31 ± 5.44 | Tumor volume, Day 18 [2, 13]: 1613.91 ± 242.24 mm^3 | T/C % (relative tumor proliferation rate) ([2]; Day 18): 137.82% | Day 21 (TGI %) ([2]; Day 21, G10-G16 groups, single IP 400 mg/kg): 21.29% | Day 21 (RTV) [2, 14]: 32.69 ± 8.02 | Tumor volume, Day 21 [2, 14]: 1924.26 ± 257.46 mm^3 | T/C % (relative tumor proliferation rate) ([2]; Day 21): 139.66% | Day 23 (TGI %) ([2]; Day 23, G10-G16 groups, single IP 400 mg/kg): 17.69% | Day 23 (RTV) [2, 15]: 33.10 ± 7.89 | Tumor volume, Day 23 [2, 15]: 1943.90 ± 242.19 mm^3 | T/C % (relative tumor proliferation rate) ([2]; Day 23): 167.43% | Day 25 (TGI %) ([2]; Day 25, G10-G16 groups, single IP 400 mg/kg): 17.26% | Day 25 (RTV) [2, 16]: 36.50 ± 8.74 | Tumor volume, Day 25 [2, 16]: 2136.52 ± 258.58 mm^3 | T/C % (relative tumor proliferation rate) ([2]; Day 25): 168.82% | Day 28 (TGI %) ([2]; Day 28, G10-G16 groups, single IP 400 mg/kg): 24.12% | Day 28 (RTV) [2, 17]: 43.13 ± 14.83 | Tumor volume, Day 28 [2, 17]: 2040.64 ± 281.98 mm^3 | T/C % (relative tumor proliferation rate) ([2]; Day 28): 204.13% | Day 30 (TGI %) ([2]; Day 30, G10-G16 groups, single IP 400 mg/kg): 16.67% | Day 30 (RTV) [2, 18]: 49.17 ± 15.89 | Tumor volume, Day 30 [2, 18]: 2338.31 ± 292.39 mm^3 | T/C % (relative tumor proliferation rate) ([2]; Day 30): 198.17%
